# Test results taken from patent US20250346600A1, “TRICYCLIC DERIVATIVES AND RELATED USES” (MOMA Therapeutics, Inc., priority 2023, published 2025).
# Read-outs that look alike come from different tables or passages of the source.
# Columns and labels:
# [1] = biological target: T1, Full length WRN protein (aa 2-1432) (Homo sapiens (Human), UniProt Q14191); experiment: WRN ATPase ADP-Glo biochemical assay, Assay Format A (10 μM ATP); details: 0.25 nM WRN, 100 nM C6.18 ssDNA, 30 min preincubation, read-out: ATPase ADPGlo AC50 (uM)- Assay Format A
# In short: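 Sf9-expressed FLAG-AVI-TEV-tagged WRN (0.5 nM) preincubated 30 min with compound (11-point 3-fold dilution). Reaction started with 200 nM C6.18 39-mer ssDNA and 20 μM ATP (addition concentrations), run 30 min at room temperature. ADP measured by ADP-Glo luminescence; IC50 from four-parameter fit, geometric mean of ≥2 runs.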
# [2] = biological target: T1, Full length WRN protein (aa 2-1432); experiment: WRN ATPase ADP-Glo biochemical assay, Assay Format B (100 μM ATP); details: 0.25 nM WRN, 100 nM C6.18 ssDNA, 60 min preincubation, read-out: ATPase ADPGlo AC50 (uM)- Assay Format B
# HCT116 cells = experiment: HCT116 (MSI) 7 day viability, CellTiter Glo; type: cell-based; details: 7 days, read-out: HCT116 (MSI) Viability 7 Day Abs AC50
# In short: (§1)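 Seven-day viability is assessed with CellTiter Glo after compounds, diluted in ten 3-fold steps in DMSO, are exposed to HCT116 (50 cells/well) or HT29 (500 cells/well). Reported IC50 is the geometric mean of at least two independent runs.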
# HT29 cells = experiment: HT29 (MSS) 7 day viability, CellTiter Glo; type: cell-based; details: 7 days, read-out: HT29 (MSS) Viability 7 Day CTGAbs AC50
# In short: as §1
# T1 sequence (Q14191 2-1432): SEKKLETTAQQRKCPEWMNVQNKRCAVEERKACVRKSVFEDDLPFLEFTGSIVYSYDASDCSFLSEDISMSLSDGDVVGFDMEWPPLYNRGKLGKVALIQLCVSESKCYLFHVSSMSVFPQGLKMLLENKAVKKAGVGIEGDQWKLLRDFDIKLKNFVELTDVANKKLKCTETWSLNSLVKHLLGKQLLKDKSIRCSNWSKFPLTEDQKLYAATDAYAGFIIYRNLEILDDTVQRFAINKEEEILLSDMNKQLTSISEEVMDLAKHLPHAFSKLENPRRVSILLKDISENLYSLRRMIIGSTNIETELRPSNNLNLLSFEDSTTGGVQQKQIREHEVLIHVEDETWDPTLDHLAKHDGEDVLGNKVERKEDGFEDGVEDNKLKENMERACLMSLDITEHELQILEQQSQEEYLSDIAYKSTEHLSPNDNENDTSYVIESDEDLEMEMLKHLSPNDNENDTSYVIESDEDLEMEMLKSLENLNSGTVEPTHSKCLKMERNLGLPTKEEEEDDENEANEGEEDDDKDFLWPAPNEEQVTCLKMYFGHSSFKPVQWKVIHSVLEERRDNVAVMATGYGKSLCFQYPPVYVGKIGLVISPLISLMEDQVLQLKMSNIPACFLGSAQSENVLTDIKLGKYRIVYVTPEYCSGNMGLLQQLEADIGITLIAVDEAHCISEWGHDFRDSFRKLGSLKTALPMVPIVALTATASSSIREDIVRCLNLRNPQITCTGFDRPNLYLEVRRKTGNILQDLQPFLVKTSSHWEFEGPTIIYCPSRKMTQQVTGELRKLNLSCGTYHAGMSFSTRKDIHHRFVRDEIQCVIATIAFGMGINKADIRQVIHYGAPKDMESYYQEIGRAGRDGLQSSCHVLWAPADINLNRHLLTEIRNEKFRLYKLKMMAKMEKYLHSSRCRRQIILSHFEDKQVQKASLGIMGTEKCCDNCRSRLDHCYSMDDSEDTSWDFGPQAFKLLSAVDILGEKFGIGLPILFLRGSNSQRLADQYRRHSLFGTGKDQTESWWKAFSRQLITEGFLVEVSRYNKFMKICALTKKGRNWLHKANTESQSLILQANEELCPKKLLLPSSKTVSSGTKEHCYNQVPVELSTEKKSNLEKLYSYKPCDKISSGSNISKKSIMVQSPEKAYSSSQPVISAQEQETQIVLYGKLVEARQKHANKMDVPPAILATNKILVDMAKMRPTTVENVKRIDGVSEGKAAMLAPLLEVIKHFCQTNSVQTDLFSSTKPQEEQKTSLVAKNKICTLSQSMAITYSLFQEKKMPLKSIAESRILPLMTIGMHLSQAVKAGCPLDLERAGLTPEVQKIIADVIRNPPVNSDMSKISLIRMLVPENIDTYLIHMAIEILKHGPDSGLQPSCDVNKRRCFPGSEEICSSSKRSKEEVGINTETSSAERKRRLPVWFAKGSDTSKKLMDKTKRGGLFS
AC50 [1] [µM],AC50 [2] [µM],SMILES,"AC50 (HCT116 cells; Homo sapiens, HCT-116, 168 h) [nM]","AC50 (HT29 cells; Homo sapiens, HT-29, 168 h) [nM]",AC50 (HCT116 cells) [nM],AC50 (HT29 cells) [nM]
< 0.0015,0.0015 to 0.005,"C=CC(=O)N1CCc2nn(-c3ccc(C4CCC4)cc3O)c3c2C(C1)N(C(=O)c1ccc(Br)c2[nH]cnc12)CC3 (stereo not drawn) [Compound 23, 1-(5-(7-bromo-1H-benzo[d]imidazole-4-carbonyl)-2-(4-cyclobutyl-2-hydroxyphenyl)-2,3,4,5,5a,6,8,9-octahydro-7H-1,2,5,7-tetraazabenzo[cd]azulen-7-yl)prop-2-en-1-one]",1 to 100,> 3000,,
< 0.0015,0.015 to 0.055,"C=CC(=O)N1CCc2nn(-c3ccc(C4CC4)cc3)c3c2C(C1)N(C(=O)c1ccc(Cl)nc1N)CC3 (stereo not drawn) [Compound 167, 1-(5-(2-amino-6-chloronicotinoyl)-2-(4-cyclopropylphenyl)-2,3,4,5,5a,6,8,9-octahydro-7H-1,2,5,7-tetraazabenzo[cd]azulen-7-yl)prop-2-en-1-one]",1 to 100,> 3000,,
< 0.0015,0.015 to 0.055,"C=CC(=O)N1CCOc2nn(-c3ccc(C4CC4)cc3)c3c2C(C1)N(C(=O)c1ccc(Br)c2[nH]cnc12)CC3 (stereo not drawn) [Compound 49, 1-(5-(7-bromo-1H-benzo[d]imidazole-4-carbonyl)-2-(4-cyclopropylphenyl)-2,3,4,5,5a,6,8,9-octahydro-7H-10-oxa-1,2,5,7-tetraazacycloocta[cd]inden-7-yl)prop-2-en-1-one]",1 to 100,> 3000,,
0.0015 to 0.005,0.015 to 0.055,"C=CC(=O)N1CCc2nn(-c3ccc(C(C)C)cc3)c3c2C(C1)N(C(=O)c1ccc(Br)c2[nH]c(N4CCC4)nc12)CC3 (stereo not drawn) [Compound 9, 1-(5-(2-(azetidin-1-yl)-7-bromo-1H-benzo[d]imidazole-4-carbonyl)-2-(4-isopropylphenyl)-2,3,4,5,5a,6,8,9-octahydro-7H-1,2,5,7-tetraazabenzo[cd]azulen-7-yl)prop-2-en-1-one]",1 to 100,> 3000,,
< 0.0015,0.015 to 0.055,"C=CC(=O)N1CCc2nn(-c3ccc(C(C)C)cc3)c3c2C(C1)N(C(=O)c1ccc(Br)c2c1CCO2)CC3 (stereo not drawn) [Compound 65, 1-(5-(7-bromo-2,3-dihydrobenzofuran-4-carbonyl)-2-(4-isopropylphenyl)-2,3,4,5,5a,6,8,9-octahydro-7H-1,2,5,7-tetraazabenzo[cd]azulen-7-yl)prop-2-en-1-one]",1 to 100,> 3000,,
< 0.0015,0.005 to 0.015,"C=CC(=O)N1CC(O)c2nn(-c3ccc(C4CC4)cc3)c3c2C(C1)N(C(=O)c1cnc(C(F)(F)F)cc1N)CC3 (stereo not drawn) [Compound 184, 1-(5-(4-amino-6-(trifluoromethyl)nicotinoyl)-2-(4-cyclopropylphenyl)-9-hydroxy-2,3,4,5,5a,6,8,9-octahydro-7H-1,2,5,7-tetraazabenzo[cd]azulen-7-yl)prop-2-en-1-one]",1 to 100,> 3000,,
< 0.0015,0.005 to 0.015,"C=CC(=O)N1CC(OC)c2nn(-c3ccc(C4CC4)cc3)c3c2C(C1)N(C(=O)c1cnc(C(F)(F)F)cc1N)CC3 (stereo not drawn) [Compound 187, 1-(5-(4-amino-6-(trifluoromethyl)nicotinoyl)-2-(4-cyclopropylphenyl)-9-methoxy-2,3,4,5,5a,6,8,9-octahydro-7H-1,2,5,7-tetraazabenzo[cd]azulen-7-yl)prop-2-en-1-one]",1 to 100,> 3000,,
> 0.055,> 0.055,"C=CC(=O)N1CCc2nn(-c3ccc(C4CC4)cc3)c3c2C(C1)N(C(=O)c1ccc2c(c1)[nH]c(=O)n2C)CC3 (stereo not drawn) [Compound 70, 5-(7-acryloyl-2-(4-cyclopropylphenyl)-3,4,5,5a,6,7,8,9-octahydro-2H-1,2,5,7-tetraazabenzo[cd]azulene-5-carbonyl)-1-methyl-1,3-dihydro-2H-benzo[d]imidazol-2-one]",> 1000,> 3000,,
< 0.0015,0.0015 to 0.005,"C=CC(=O)N1CCc2nn(-c3ccc(C4CC4)cc3)c3c2C(C1)N(C(=O)c1cnc(Br)c(F)c1N)CC3 (stereo not drawn) [Compound 182, 1-(5-(4-amino-6-bromo-5-fluoronicotinoyl)-2-(4-cyclopropylphenyl)-2,3,4,5,5a,6,8,9-octahydro-7H-1,2,5,7-tetraazabenzo[cd]azulen-7-yl)prop-2-en-1-one]",1 to 100,> 3000,,
< 0.0015,0.005 to 0.015,"C=CC(=O)N1CCc2nn(-c3ccc(C4CC4)cc3)c3c2C(C1)N(C(=O)c1cnc(Cl)cc1N)CC3 (stereo not drawn) [Compound 162, 1-(5-(4-amino-6-chloronicotinoyl)-2-(4-cyclopropylphenyl)-2,3,4,5,5a,6,8,9-octahydro-7H-1,2,5,7-tetraazabenzo[cd]azulen-7-yl)prop-2-en-1-one]",,,1 to 100,> 3000

# The next lines start with the compound.
SMILES,AC50 [1] [µM],AC50 [2] [µM],"AC50 (HCT116 cells; Homo sapiens, HCT-116, 168 h) [nM]","AC50 (HT29 cells; Homo sapiens, HT-29, 168 h) [nM]",AC50 (HCT116 cells) [nM],AC50 (HT29 cells) [nM]
"C=CC(=O)N1CCc2nn(-c3ccc(C4CCC4)cc3O)c3c2C(C1)N(C(=O)c1ccc(SC(F)(F)F)nc1)CC3 (stereo not drawn) [Compound 157, 1-(2-(4-cyclobutyl-2-hydroxyphenyl)-5-(6-((trifluoromethyl)thio)nicotinoyl)-2,3,4,5,5a,6,8,9-octahydro-7H-1,2,5,7-tetraazabenzo[cd]azulen-7-yl)prop-2-en-1-one]",< 0.0015,0.005 to 0.015,1 to 100,> 3000,,
"C=CC(=O)N1CCc2nn(-c3ccc(C4CCC4)cc3O)c3c2C(C1)N(C(=O)c1ccc(C(F)(F)F)c2ncncc12)CC3 (stereo not drawn) [Compound 242, 1-(2-(4-cyclobutyl-2-hydroxyphenyl)-5-(8-(trifluoromethyl)quinazoline-5-carbonyl)-2,3,4,5,5a,6,8,9-octahydro-7H-1,2,5,7-tetraazabenzo[cd]azulen-7-yl)prop-2-en-1-one]",0.0015 to 0.005,0.015 to 0.055,1 to 100,> 3000,,
"C=CC(=O)N1CCc2nn(-c3ccc(C(C)C)cc3O)c3c2C(C1)N(C(=O)c1ccc(Br)c2[nH]c(C(F)F)nc12)CC3 (stereo not drawn) [Compound 174, 1-(5-(7-bromo-2-(difluoromethyl)-1H-benzo[d]imidazole-4-carbonyl)-2-(2-hydroxy-4-isopropylphenyl)-2,3,4,5,5a,6,8,9-octahydro-7H-1,2,5,7-tetraazabenzo[cd]azulen-7-yl)prop-2-en-1-one]",< 0.0015,0.0015 to 0.005,1 to 100,> 3000,,
"C=CC(=O)N1CCc2nn(-c3ccc(C(C)C)cc3)c3c2C(C1)N(C(=O)c1ccc(Br)c(NCC(F)(F)F)c1)CC3 (stereo not drawn) [Compound 104, 1-(5-(4-bromo-3-((2,2,2-trifluoroethyl)amino)benzoyl)-2-(4-isopropylphenyl)-2,3,4,5,5a,6,8,9-octahydro-7H-1,2,5,7-tetraazabenzo[cd]azulen-7-yl)prop-2-en-1-one]",0.005 to 0.015,> 0.055,1 to 100,> 3000,,
"C=CC(=O)N1CCc2nn(-c3ccc(C4CCC4)cc3O)c3c2C(C1)N(C(=O)c1cnc(C(F)(F)F)c(F)c1N)CC3 (stereo not drawn) [Compound 134, 1-(5-(4-amino-5-fluoro-6-(trifluoromethyl)nicotinoyl)-2-(4-cyclobutyl-2-hydroxyphenyl)-2,3,4,5,5a,6,8,9-octahydro-7H-1,2,5,7-tetraazabenzo[cd]azulen-7-yl)prop-2-en-1-one]",< 0.0015,0.0015 to 0.005,1 to 100,> 3000,,
"C=CC(=O)N1CCc2nn(-c3ccc(C4CCC4)cc3O)c3c2C(C1)N(C(=O)c1cnc2c(C)nn(C)c2c1)CC3 (stereo not drawn) [Compound 145, 1-(2-(4-cyclobutyl-2-hydroxyphenyl)-5-(1,3-dimethyl-1H-pyrazolo[4,3-b]pyridine-6-carbonyl)-2,3,4,5,5a,6,8,9-octahydro-7H-1,2,5,7-tetraazabenzo[cd]azulen-7-yl)prop-2-en-1-one]",< 0.0015,0.005 to 0.015,1 to 100,> 3000,,
"C=CC(=O)N1CCc2nn(-c3ccc(C45CC(C4)C5)cc3)c3c2C(C1)N(C(=O)c1ccc(C(F)(F)F)c2[nH]ncc12)CC3 (stereo not drawn) [Compound 19, 1-(2-(4-(bicyclo[1.1.1]pentan-1-yl)phenyl)-5-(7-(trifluoromethyl)-1H-indazole-4-carbonyl)-2,3,4,5,5a,6,8,9-octahydro-7H-1,2,5,7-tetraazabenzo[cd]azulen-7-yl)prop-2-en-1-one]",0.0015 to 0.005,0.015 to 0.055,1 to 100,> 3000,,
"C=CC(=O)N1CC(OC2CC(C#N)C2)c2nn(-c3ccc(C4CCC4)cc3)c3c2C(C1)N(C(=O)c1cnc(C(F)(F)F)cc1N)CC3 (stereo not drawn) [Compound 198, 3-((7-acryloyl-5-(4-amino-6-(trifluoromethyl)nicotinoyl)-2-(4-cyclobutylphenyl)-3,4,5,5a,6,7,8,9-octahydro-2H-1,2,5,7-tetraazabenzo[cd]azulen-9-yl)oxy)cyclobutane-1-carbonitrile]",< 0.0015,0.005 to 0.015,1 to 100,> 3000,,
